The values that follow come from PMC12040169 (PLOS Biology, 2025).

SMILES strings stand for the structures.

The nature of the data set: in vitro. The settings on record: human, hela cells, % viability.

For orientation: viability means a read-out of living cells in per cent, often relative to untreated cells. Turning to `Cc1cn(-c2ccc(OC(=O)NC(C)(C)C)c(Cl)c2)c(=O)n1C` [CBK025991], for the setting “bulk resorufin, single well”, the viability at 28.5 h, 10 µM was 106%.

Regarding `Cn1ccc(C(=O)N2CCCC(c3cc4ncccc4[nH]3)C2)n1` (centres unmarked) [CBK283412], the viability at 28.5 h, 10 µM was determined as 89.8%.

Consider `CC(=O)Nc1nc2cc3c(cc2s1)OCCO3` [CBK287618], for which the viability at 28.5 h, 10 µM came to 96.2%.

Consider `O=C(Nc1cc(Oc2cccnc2)cc([N+](=O)[O-])c1)c1cc2nc(-c3ccccc3)cc(-c3ccccc3)n2n1` [CBK262554], for which the viability at 28.5 h, 10 µM was 87.3%.

`CCCC(=O)c1ccc(S(=O)(=O)N2CCCN(Cc3ccc(F)cc3Cl)CC2)cc1` [CBK062917]: the viability at 28.5 h, 10 µM came to 116%.

As to `O=C(C1CC1)N1CCC(Cn2nc(-c3ccccc3)ccc2=O)CC1` [CBK284115], the viability at 28.5 h, 10 µM was found to be 89.7%.

As for `CC(C)(C)c1nc(-c2ccccc2)c2ccccn12` [CBK149256], the viability at 28.5 h, 10 µM amounted to 101%.

Consider `CC(C)N(C(=O)Cn1nc(-c2cccs2)ccc1=O)C(C)C` [CBK282638], for which the viability at 28.5 h, 10 µM is 90%.

Take `C=CCN1C(=O)CC2(C1=O)C(=O)N(C)c1ccccc12` (centres unmarked) [CBK075472]: the viability at 28.5 h, 10 µM turned out to be 99%.

With `CNC(=O)CN(CCO)Cc1cc(Br)ccc1F` [CBK304941], the viability at 28.5 h, 10 µM was 108%.

On to `COc1ccc(CCNc2ccccc2[N+](=O)[O-])cc1OC` [CBK074819], for which the viability at 28.5 h, 10 µM was found to be 104%.

With `Cc1oc(C(=O)Nc2ccc(C(=O)O)cc2)cc1COc1ccccc1` [CBK263273], the viability at 28.5 h, 10 µM stood at 94.2%.

For the compound `CN1CCC(C(=O)N2CCN(c3ncccn3)CC2)CC1` [CBK144511], the viability at 28.5 h, 10 µM amounted to 102%.

In the case of `COc1cc(OC)nc(N2CCN(c3nccnc3NS(=O)(=O)C3CC3)CC2)n1` [CBK048698], the viability at 28.5 h, 10 µM was found to be 109%.

As to `O=S(=O)(Nc1cccnc1N1CCOCC1)c1ccc(F)cc1` [CBK051009], the viability at 28.5 h, 10 µM was 96.4%.

As to `c1cc2c(cc1-c1ccc3c(c1)COC1(CCNCC1)O3)CCO2` [CBK060920], the viability at 28.5 h, 10 µM (bulk resorufin, single well) was 108%.

For `Cc1c(Br)c([N+](=O)[O-])nn1C(C)C(=O)Nc1sc2c(c1C(N)=O)CCCC2` (centres unmarked) [CBK268914], the viability at 28.5 h, 10 µM turned out to be 88.1%.

Take `Cc1nc(-c2ccccc2)sc1C(=O)C1=C(O)C(=O)N(CCN(C)C)C1c1ccc(Cl)cc1` (centres unmarked) [CBK266595]: the viability at 28.5 h, 10 µM came to 110%.

Regarding `CS(=O)(=O)N1CCC2(CC1)NC(=O)N(Cc1ccccc1)C2=O` [CBK287656], the viability at 28.5 h, 10 µM is 100%.

In the case of `CC(C)NC(=O)NC[C@H]1C[C@@H]2CCN1C[C@@H]2c1cc(-c2ccc(F)cc2)nn1C` [CBK289111], the viability at 28.5 h, 10 µM amounted to 88.5%.

For the compound `Cc1ccc(-c2nn3c(C)nnc3s2)cc1NC(=O)c1ccc([N+](=O)[O-])o1` [CBK267247], the viability at 28.5 h, 10 µM came to 95.2%.

Consider `Cc1nnc(SCC(=O)c2ccccc2)[nH]1` [CBK026287], for which the viability at 28.5 h, 10 µM is 99.5%.

As for `COc1ccccc1C(=O)N1CCC[C@@H](N)[C@@H]1c1ccccc1F` [CBK283458], the viability at 28.5 h, 10 µM came to 86%.

Turning to `O=C(CSc1ccccn1)Nc1cccc(Cl)c1Cl` [CBK057679], the viability at 28.5 h, 10 µM was 91.8%.

Take `Cc1nc(C(F)(F)F)ccc1C(=O)NCCn1ccnc1C` [CBK281982]: the viability at 28.5 h, 10 µM was found to be 88.9%.

Take `Cc1ccc2[nH]c3nc(N/N=C/c4ccc(-c5cccc([N+](=O)[O-])c5)o4)nnc3c2c1` [CBK262365]: the viability at 28.5 h, 10 µM came out at 106%.

On to `O=C(CC1C(=O)NCCN1C(=S)Nc1ccccc1)Nc1ccc2c(c1)OCCO2` (centres unmarked) [CBK267999], for which the viability at 28.5 h, 10 µM was 95.9%.

Turning to `CCn1c(COc2ccc(Cl)c3cccnc23)nnc1SC` [CBK266611], the viability at 28.5 h, 10 µM is 85.9%.

Consider `CCN(C(=O)CC1SC(NCC2CCCCC2)=NC1=O)c1ccccc1` (centres unmarked) [CBK067373], for which the viability at 28.5 h, 10 µM was 89.3%.

Turning to `C[C@H]1[C@@H]2[C@@H](O)C([C@H](C)C(=O)N3CCCCC3)CC[C@@]2(C)CC[C@@H]1NC(=O)C1CC1` (some centres unmarked) [CBK289446], the viability at 28.5 h, 10 µM was determined as 106%.

As for `CC(C)(C)CC(C)(C)NC(=O)NCCc1cccs1` [CBK038697], the viability at 28.5 h, 10 µM worked out at 91.8%.

For the compound `Cc1[nH]c(=O)c(C(=O)N(C)C(C)c2ccc(Cl)cc2)cc1-c1ccc(O)cc1` (centres unmarked) [CBK291225], the viability at 28.5 h, 10 µM came to 98.8%.

For `CC(=O)Nc1ccc(N2C(=O)CSC23C(=O)Nc2ccccc23)cc1` (centres unmarked) [CBK095916], the viability at 28.5 h, 10 µM was determined as 91.7%.

As to `O=C(c1ccccc1F)N1CCC(n2c(=O)oc3ccccc32)CC1` [CBK284346], the viability at 28.5 h, 10 µM turned out to be 90.1%.

Regarding `COCc1ccc(C(=O)N2CCC(c3cc4cnccc4[nH]3)CC2)o1` [CBK283073], the viability at 28.5 h, 10 µM came out at 90.9%.

As to `Cc1ccc(NC2CC(C)N(C(=O)c3cccc([N+](=O)[O-])c3)c3ccc(C)cc32)cc1` (centres unmarked) [CBK293929], the viability at 28.5 h, 10 µM is 86.5%.

On to `CCN(CCO)c1ccc(Nc2nc(-c3ccc(F)c(Cl)c3)cn3ccnc23)cc1` [CBK038042], for which the viability at 28.5 h, 10 µM was determined as 100%.

`Cc1cc(NS(=O)(=O)c2ccc(NC(=O)c3ccc(C(C)(C)C)c(Br)c3)cc2)no1` [CBK265629]: the viability at 28.5 h, 10 µM came out at 119%.

`CCOC(=O)CN1CCN(S(=O)(=O)c2ccc(F)c(F)c2F)CC1` [CBK044345]: the viability at 28.5 h, 10 µM amounted to 92.4%.

Take `Cc1cccc(-n2c(SCC(=O)Nc3ccc(Br)cc3F)nnc2-c2ccccc2)c1` [CBK265903]: the viability at 28.5 h, 10 µM is 98.9%.

For `Cc1nc2c(c(=O)[nH]1)CCN(Cc1ccc(-c3ccccc3)cc1)C2` [CBK283970], the viability at 28.5 h, 10 µM turned out to be 94.4%.

`COCCNc1nc(-c2cccc3cccnc23)cn2ccnc12` [CBK037314]: the viability at 28.5 h, 10 µM came to 95.3%.

Consider `CCN(CC)C(=O)c1[nH]c2ccccc2c1NS(=O)(=O)c1cc(Br)ccc1OC` [CBK050113], for which the viability at 28.5 h, 10 µM was found to be 92.6%.

Consider `O=S(=O)(c1ccccc1)c1cn2ccnc2c(N2CCNCC2)n1` [CBK200021T], for which the viability at 28.5 h, 10 µM turned out to be 98.3%.

Regarding `Cn1c2c(ccc1=O)CCCCC2` [CBK005987], the viability at 28.5 h, 10 µM is 92%.

On to `COc1cccc(C(=O)N2CCCC(c3cc4cnccc4[nH]3)C2)c1` (centres unmarked) [CBK285417], for which the viability at 28.5 h, 10 µM was 104%.

Turning to `Nc1ccc(C(=O)Nc2ccc(Nc3cc(-c4cccnc4)ncn3)cc2)cc1` [CBK037823], the viability at 28.5 h, 10 µM came out at 94.6%.

For the compound `Cn1ncnc1COc1ccc(S(=O)(=O)N2CCCCC2CN)cc1` (centres unmarked) [CBK304313C], the viability at 28.5 h, 10 µM turned out to be 82.3%.

Take `Cc1ccc(S(=O)(=O)c2cccc(S(=O)(=O)N3CCCCC3)c2)cc1S(=O)(=O)N1CCCCC1` [CBK262207]: the viability at 28.5 h, 10 µM is 105%.

On to `O=C(C[C@@H]1O[C@H](CNS(=O)(=O)c2ccc(Cl)cc2)[C@@H](O)[C@H]1O)N1CCCC1` [CBK288911], for which the viability at 28.5 h, 10 µM worked out at 94.2%.

In the case of `CC(CNC(=O)c1ccc([N+](=O)[O-])o1)N1CCc2sccc2C1` (centres unmarked) [CBK297749], the viability at 28.5 h, 10 µM worked out at 87.9%.

In the case of `CC(=O)N[C@H]1CO[C@H]2[C@@H]1OC[C@@H]2n1nnnc1-c1ccccc1` [CBK289483], the viability at 28.5 h, 10 µM amounted to 87.1%.

Consider `CCc1ccc2occ(CC(=O)Nc3ccc(C(=O)OC)cc3)c2c1` [CBK268318], for which the viability at 28.5 h, 10 µM came to 105%.

`O=C1NC2=C(C(=O)N(CCN3CCCC3)C2)C(c2ccccc2)N1` (centres unmarked) [CBK283493]: the viability at 28.5 h, 10 µM is 103%.

For `Cc1ccc(-c2c[nH]c([C@@H]3COCCN3Cc3c[nH]cn3)n2)cc1` [CBK289315], the viability at 28.5 h, 10 µM was 94.8%.

Turning to `O=C(NCc1cccc2ccccc12)N1CCN(c2ccccc2)CC1` [CBK155175], the viability at 28.5 h, 10 µM came out at 89.1%.

Take `CS(=O)(=O)c1ccc(-c2ccc3c(c2)COC2(CCN(C(=O)CC4CCCCC4)CC2)O3)cn1` [CBK160596]: the viability at 28.5 h, 10 µM (bulk resorufin, single well) was determined as 93.3%.

`O=C(c1ccc2[nH]c(=O)[nH]c2c1)N1CCCC2(CCN(Cc3ccccc3)C2)C1` (centres unmarked) [CBK137149]: the viability at 28.5 h, 10 µM was 91.7%.

`COc1ccc(-c2noc(CNC(=O)Cc3ccc(-c4ccccc4)cc3)n2)cc1` [CBK269272]: the viability at 28.5 h, 10 µM turned out to be 105%.

Regarding `COc1ccc(Oc2nccnc2N2CCN(Cc3ccc(C(F)(F)F)cc3)CC2)cc1OC` [CBK083044T], the viability at 28.5 h, 10 µM turned out to be 102%.

In the case of `O=[N+]([O-])c1ccc(Oc2ccccc2)nc1` [CBK002726], the viability at 28.5 h, 10 µM stood at 85.8%.

Regarding `Cc1cc(C)n2nc(C(=O)NCCCn3ccnc3C(C)C)nc2n1` [CBK307635], the viability at 28.5 h, 10 µM amounted to 94%.

Regarding `COc1cc(-c2cnc(N)c(NCc3ccncc3)n2)cc(OC)c1OC` [CBK063646], the viability at 28.5 h, 10 µM worked out at 94.8%.

Consider `OCc1ccccc1-c1cncc(NCCc2c[nH]c3ccccc23)n1` [CBK037852], for which the viability at 28.5 h, 10 µM is 93.2%.

With `Fc1c(CN2CCOCC2)cccc1CN1CCOCC1` [CBK085967], the viability at 28.5 h, 10 µM was 97.6%.

On to `COc1cccc(NC(=O)N(CCCO)C2CCc3ccccc32)c1` (centres unmarked) [CBK305397], for which the viability at 28.5 h, 10 µM was found to be 95%.

In the case of `CCNC(=O)N1CC2(CCN(Cc3cc(OC)c(OC)c(OC)c3)CC2)c2ccccc21` [CBK126689], the viability at 28.5 h, 10 µM came to 96.5%.

Consider `COc1cccc(/C=C2/SC(=S)N(C)C2=O)c1OCCCOc1ccc(C)cc1C` [CBK264446], for which the viability at 28.5 h, 10 µM amounted to 102%.

On to `Cn1cc(C(c2ccccc2OCC(=O)O)c2cn(C)c3ccccc23)c2ccccc21` [CBK266410], for which the viability at 28.5 h, 10 µM was 112%.

In the case of `O=C(Nc1ccc(S(=O)(=O)NCCc2ccccc2)cc1)c1ccc2c(c1)OCO2` [CBK265591], the viability at 28.5 h, 10 µM amounted to 108%.

With `COc1ccc2nc(C)cc(N3CCOCC3)c2c1` [CBK066896], the viability at 28.5 h, 10 µM was determined as 91.2%.

Take `Nc1ccccc1Sc1nc2ccccc2nc1C(F)(F)F` [CBK093776]: the viability at 28.5 h, 10 µM was determined as 96.1%.

As for `CCNC(=O)Nc1ccc2ccc(-c3cccnc3)nc2n1` [CBK070652], the viability at 28.5 h, 10 µM amounted to 85%.

Regarding `Cc1cc(N2CCN(CC(=O)c3ccc(Cl)cc3)CC2)c2ccccc2n1` [CBK066868], the viability at 28.5 h, 10 µM is 106%.

As to `COc1ccc(CN2CCN(c3ccc(F)cc3)CC2)cc1OCc1ccccc1` [CBK261894], the viability at 28.5 h, 10 µM worked out at 95%.

With `O=c1sc(Nc2ccccc2)nc2ccsc12` [CBK287853], the viability at 28.5 h, 10 µM is 91.9%.

In the case of `CC(C)C12CN3CC(C(C)C)(CN(C1)C3c1c[nH]c3ccccc13)C2=O` (centres unmarked) [CBK263740], the viability at 28.5 h, 10 µM was found to be 96.1%.
